Measurements: patent publication US20060183773A1, “Uses of methylphenidate derivatives” (priority 2005, published 2006)

What was measured:
Format in all cases: cell-based, human
[1] = system: peripheral blood lymphocytes (PBL); assay: PBL proliferation, Promega cell titer assay; settings: for proliferation of PBL stimulated with PHA (OD at 530 nm): donor GR283; for proliferation of PBL (OD at 530 nm): Dex 10 μM
Protocol: Whole blood was drawn from GR283, a human volunteer with known allergies, into a glass vacutainer tube containing no anticoagulant. This blood was allowed to clot, and the serum was removed by centrifugation and then heat inactivated by placing it in a water bath at 56° C. for 30 minutes. Whole blood from GR283 was also drawn into a glass vacutainer tube containing heparin and used for peripheral blood lymphocytes (PBL) isolation as follows. Whole blood was layered over room temperature Histopaque 1077 solution and centrifuged at 2000 rpm for 15 minutes at room temperature. Cells at the plasma-Histopaque interface were then removed and washed with culture medium (IMDM medium with 10% heat-inactivated GR283 serum plus 1% penicillin/streptomycin) at 37° C.
Then, GR283's PBL in culture medium were added to the wells to give a final concentration of 150,000 cells per well, and the plates were incubated at 37° C., 5% CO2 for 24 hours. After this incubation, phytohemagglutinin (PHA) in culture medium was added to give final concentrations of 2 μg/ml, 5 μg/ml or 20 μg/ml, final total volume of 200 μl/well, and the cells were incubated for an additional 72 hours at 37° C., 5% CO2. All cultures were performed in triplicate.
Cell proliferation was assayed by adding 20 μl of Promega cell titer solution to each well and incubating the plate for an additional 4 hours. Promega cell titer solution is a solution containing a tetrazolium dye that is reduced by living cells to a formazan dye, and this reduction is proportional to the number of living cells present in the well. After the 4-hour incubation, the optical density (OD) at 530 nm of each well was measured. The OD at 530 nm for blank wells containing no cells was subtracted from the OD of the experimental wells.
Then, GR467's PBL in culture medium were added to the wells to give a final concentration of 150,000 cells per well, and the plates were incubated at 37° C., 5% CO2 for 24 hours. After this incubation, PHA was added to give a final concentration of 2 μg/ml, final total volume of 200 μl/well, and the cells were incubated for an additional 72 hours at 37° C., 5% CO2. All cultures were performed in triplicate.
Then, GR191's PBL in culture medium were added to the wells to give a final concentration of 150,000 cells per well, and the plates were incubated at 37° C., 5% CO2 for 24 hours. After this incubation, PHA was added to give final concentrations of 2 μg/ml and 5 μg/ml, final total volume of 200 μl/well, and the cells were incubated for an additional 72 hours at 37° C., 5% CO2. All cultures were performed in triplicate.

IL-13 = IL-13 release by PBL, ELISA; settings: Dex 10 μM; for IL-13 release induced by PHA: donor GR467, 2 μg/ml PHA, 96 h, Cpd II 15 μg/ml, MP 15 μg/ml, FIG. 3
Protocol: (§1) After this incubation, PHA was added to give a final concentration of 2 μg/ml, and the cells were incubated for an additional 96 hours at 37° C., 5% CO2. All cultures were performed in triplicate. Cells were then removed by centrifugation at 1000 rpm for 10 minutes, and the culture medium collected.
(§2) Release of IL-13 and interferon gamma (IFNγ) into the culture medium was measured by ELISA. To perform the ELISA, matched pairs of antibodies against human IL-13 and IFNγ were purchased from Pierce Biotechnology and Biosource, respectively. ELISA strip well plates were coated with 10 μg/ml of antibody (in phosphate-buffered saline (PBS)) to IL-13 and 4 μg/ml of antibody to IFNγ (in PBS) overnight at room temperature. The plates were then blocked using a 4% BSA solution in PBS for one hour, followed by the addition of 50 μl of experimental culture medium per well in duplicate. The plates were incubated at room temperature for one hour and then washed using 50 mM Tris pH 8.0 with 0.1% Tween 20. Then, solutions of 400 ng/ml biotinylated second antibody to IL-13 and 500 ng/ml biotinylated second antibody to IFNγ were made in blocking buffer, and 100 μl were added per well. The plates were incubated for 1 hour and washed again. A 1:8000 dilution of Strepavidin HRP (Pierce Biotechnology) conjugate was made in blocking buffer, and 100 μl were added to the wells and incubation continued for 30 minutes. A final wash step was performed, after which 100 μl Pierce Biotechnology TMB substrate were added to each well. Color was developed for 30 minutes and stopped by adding 100 μl 0.18 N H2SO4. OD was determined using microplate reader with a 450 nm filter.
After this incubation, PHA was added to give a final concentration of 5 μg/ml, and the cells were incubated for an additional 72 hours at 37° C., 5% CO2. All cultures were performed in triplicate. Cells were then removed by centrifugation at 1000 rpm for 10 minutes.
The supernatants were collected, and the concentrations of IL-13 and tumor necrosis factor alpha (TNFα) in the supernatants were measured by ELISA. […]

IFNγ = IFNγ release by PBL, ELISA; settings: donor GR467, Cpd II 15 μg/ml, MP 15 μg/ml, Dex 10 μM, FIG. 4; for IFNγ release, cells stimulated with PHA: 2 μg/ml PHA, 96 h; for IFNγ release, unstimulated cells: no PHA
Protocol: as §1, §2

c-Jun = c-Jun in VEGF-treated HUVECs, TransAM AP-1 assay; settings: for Mean OD 450 nm (c-Jun): control 0.204, VEGF only 0.261
Protocol: The flasks were incubated overnight at 37° C., 5% CO2 After this incubation, vascular endothelial growth factor (VEGF) (obtained from Sigma) was added to give a final concentration 10 ng/ml, and the flasks were incubated for an additional 30 minutes.
The amount of c-Jun was determined using a TransAM™ AP-1 Family Transcription Factor Assay Kit and a Nuclear Extract Kit from Active Motif North America, Carlsbad, Calif., according to manufacturer's instructions. Briefly, a nuclear extract of the cells was prepared using the Nuclear Extract Kit. Then, the nuclear extract was added to the wells of a 96-well plate in which oligonucleotide containing a TPA-responsive element (TRE) was immobilized. Activator protein-1 (AP-1) dimers contained in the nuclear extract were bound to this oligonucleotide and were detected using an antibody specific for c-Jun. A secondary antibody conjugated to horseradish peroxidase (HRP) was next added to provide a colorimetric readout that was quantified by spectrophotometry (measurement at 450 nm).

SMILES | proliferation of PBL stimulated with PHA (OD at 530 nm) ([1]; methylphenidate at the other dose / PHA combinations) | proliferation of PBL stimulated with PHA (OD at 530 nm) ([1]; methylphenidate highest dose (50 μg/ml), lowest PHA dose (2 μg/ml)) | IL-13 release induced by PHA (IL-13) | IFNγ release, cells stimulated with PHA (IFNγ) | IFNγ release, unstimulated cells (IFNγ) | Mean OD 450 nm (c-Jun) (c-Jun; VEGF 10 ng/ml + 15 μg/ml) | proliferation of PBL (OD at 530 nm) ([1]; donor GR191, unstimulated and PHA 2, 5 μg/ml, Cpd II 5, 15, 25, 50 μg/ml, MP 50 μg/ml, FIGS. 5A-B) | proliferation of PBL stimulated with PHA (OD at 530 nm) ([1]; PHA 2, 5, 20 μg/ml, Cpd II 5, 15, 50 μg/ml, Dex 10 μg/ml, FIGS. 1A-C) | proliferation of PBL (OD at 530 nm) ([1]; donor GR467, unstimulated and 2 μg/ml PHA, Cpd II 5, 15, 25 μg/ml, MP 15 μg/ml, FIG. 2) | release of IL-13 from PHA-stimulated PBL (IL-13; donor GR191, 5 μg/ml PHA, 72 h, Cpd II 15 and 50 μg/ml, FIG. 6) | Mean OD 450 nm (c-Jun) (c-Jun; VEGF 10 ng/ml + 1 μg/ml) | Mean OD 450 nm (c-Jun) (c-Jun; VEGF 10 ng/ml + 5 μg/ml) | amount of c-Jun (in words) (c-Jun; VEGF, 15 μg/ml and 5 μg/ml)
COC(=O)C(c1ccccc1)C1CCCCN1 (centres unmarked) [methylphenidate] | did not significantly reduce the proliferation of the PHA-stimulated PBL | showed a significant effect at its highest dose and the lowest PHA dose | increased the release of IL-13 by the PHA-stimulated cells | increased the release of IFNγ by the PHA-stimulated cells | had some effect on the release of IFNγ by unstimulated cells | 0.230 ± 0.016 |  |  |  |  |  |  | 
COC(=O)C(c1ccc(-c2ccccc2)cc1)C1CCCCN1 (centres unmarked) [Cpd II] |  |  | significantly inhibited IL-13 release induced by PHA | significantly inhibited IFNγ release | significantly inhibited IFNγ release | 0.204 ± 0.010 | significantly inhibited the proliferation of PBL, both unstimulated and stimulated with PHA | significantly inhibited the proliferation of PBL stimulated with PHA in a dose-dependent manner | significantly inhibited the proliferation of PBL, both unstimulated and stimulated with PHA | significantly inhibited the release of IL-13 | 0.221 ± 0.008 | 0.185 ± 0.025 | completely eliminated the increase in the amount of c-Jun
